The text below walks through data of patent US10844052B2, “LLS compounds for treatment of cancer” (THE REGENTS OF THE UNIVERSITY OF CALIFORNIA, priority 2016, dated 2020).

One assay relates to SKOV3. The experiment in a line: Anti-cancer activity against ovarian cancer cells SKOV3 (cell killing in solution / in vitro cell proliferation). In kind it is cell-based. The note with it: Homo sapiens, SK-OV-3, ovarian cancer cells SKOV3. On the procedure: Biotinylated LLS2 was synthesized in solution and loaded it onto a streptavidin-coated plate. The biotinylated LLS2 immobilized on the plate killed approximately 21% of SKOV3 ovarian cancer cells at 100 μM loading, 16% at 50 μM and 14% at 25 μM (FIG. 4). The killing effect of the LLS2 compound was also tested in solution. […] In addition, LLS2 can kill pancreatic cancer cell line XPA3, prostate cancer cell line PC3, colon cancer cell line HT29, breast cancer cell line MCF7 and lung cancer cell line A549 (FIG. 4).

The subject of assay [1] is 22RV1 prostate cancer cells. Briefly: Cell viability of prostate cancer 22RV1 cells after 72 hours treatment. The assay is classed as cell-based. Particulars: Homo sapiens.

The structures appear in SMILES notation.

`NC(=O)CC(NC(=O)[C@@H](N)Cc1ccc(Cl)c(Cl)c1)c1ccc2c(c1)nc(-c1ccc(N(CCO)CCO)cc1)n2Cc1cc(F)ccc1F` (stereo partly drawn) [LLS13, (2S)-2-amino-N-(3-amino-1-(2-(4-(bis(2-hydroxyethyl)amino)phenyl)-1-(2,5-difluorobenzyl)-1H-benzo[d]imidazol-5-yl)-3-oxopropyl)-3-(3,4-dichlorophenyl)propanamide] had a 50% inhibitory concentration (IC50) in the assay with SKOV3 greater than 50 µM.
`NC(=O)CC(NCc1c(Cl)cccc1Cl)c1ccc2c(c1)nc(-c1ccc(N(CCO)CCO)cc1)n2Cc1ccc(F)c(F)c1` (stereo not shown) [LLS14, 3-(2-(4-(bis(2-hydroxyethyl)amino)phenyl)-1-(3,4-difluorobenzyl)-1H-benzo[d]imidazol-5-yl)-3-((2,6-dichlorobenzyl)amino)propanamide] yielded an IC50 in the assay on SKOV3 of 29.2 µM. In other words, the double-digit micromolar range.
Still for that read-out and setting: with `NC(=O)CC(NCc1ccc(Cl)c(Cl)c1)c1ccc2c(c1)nc(-c1ccc(N(CCO)CCO)cc1)n2Cc1ccc(OC(F)(F)F)cc1` (stereo not shown) [LLS36, 3-(2-(4-(bis(2-hydroxyethyl)amino)phenyl)-1-(4-(trifluoromethoxy)benzyl)-1H-benzo[d]imidazol-5-yl)-3-((3,4-dichlorobenzyl)amino)propanamide] the figure was greater than 50 µM.
Same read-out and setting: next, `CC(=O)OCCN(CCOC(C)=O)c1ccc(CNC(CC(N)=O)c2ccc3c(c2)nc(-c2ccc(N(CCOC(C)=O)CCOC(C)=O)cc2)n3Cc2ccc(Cl)c(Cl)c2)cc1` (stereo not shown) [LLS37, ((4-(5-(3-amino-1-((4-(bis(2-acetoxyethyl)amino)benzyl)amino)-3-oxopropyl)-1-(3,4-dichlorobenzyl)-1H-benzo[d]imidazol-2-yl)phenyl)azanediyl)bis(ethane-2,1-diyl) Diacetate]: greater than 50 µM.
As for `NC(=O)CC(NCc1ccc(Cl)c(Cl)c1)c1ccc2c(c1)nc(-c1ccc(N(CCO)CCO)cc1)n2Cc1ccc2c(c1)OCO2` (stereo not shown) [LLS106, 3-(1-(benzo[d][1,3]dioxol-5-ylmethyl)-2-(4-(bis(2-hydroxyethyl)amino)phenyl)-1H-benzo[d]imidazol-5-yl)-3-((3,4-dichlorobenzyl)amino)propanamide], in assay [1], the viability at 2.5 µM was found to be 30%, the viability at 5 µM is 2% and the viability at 10 µM stood at 0%.
`NC(=O)CC(NCc1ccc(Cl)c(Cl)c1)c1ccc2c(c1)nc(-c1ccc(N(CCO)CCO)cc1)n2CCc1ccc(OC(F)(F)F)cc1` (stereo not shown) [LLS100]: in assay [1], the viability at 2.5 µM came out at 99%, the viability at 5 µM amounted to 28% and the viability at 10 µM is 0%.
Taken in the same sequence, the figures for `NC(=O)CC(NCc1ccncc1)c1ccc2c(c1)nc(-c1ccc(N(CCO)CCO)cc1)n2Cc1ccc(Cl)c(Cl)c1` (stereo not shown) [LLS84, 3-(2-(4-(bis(2-hydroxyethyl)amino)phenyl)-1-(3,4-dichlorobenzyl)-1H-benzo[d]imidazol-5-yl)-3-((pyridin-4-ylmethyl)amino)propanamide] were 119%, 109% and 138%.
Taken in the same sequence, the figures for `NC(=O)CC(NCC1CCCCC1)c1ccc2c(c1)nc(-c1ccc(N(CCO)CCO)cc1)n2Cc1ccc(Cl)c(Cl)c1` (stereo not shown) [LLS101, 3-(2-(4-(bis(2-hydroxyethyl)amino)phenyl)-1-(3,4-dichlorobenzyl)-1H-benzo[d]imidazol-5-yl)-3-((cyclohexylmethyl)amino)propanamide] were 20%, 1% and 0%.
The corresponding values for `NC(=O)CC(NCc1ccc(Cl)c(Cl)c1)c1ccc2c(c1)nc(-c1ccc(N(CCO)CCO)cc1)n2CC1CCCCC1` (stereo not shown) [LLS104, 3-(2-(4-(bis(2-hydroxyethyl)amino)phenyl)-1-(cyclohexylmethyl)-1H-benzo[d]imidazol-5-yl)-3-((3,4-dichlorobenzyl)amino)propanamide] are 82%, 31% and 1%.
Take `NC(=O)CC(NCc1ccc(Cl)c(Cl)c1)c1ccc2c(c1)nc(-c1ccc(N(CCO)CCO)cc1)n2CCc1ccccn1` (stereo not shown) [LLS108, 3-(2-(4-(bis(2-hydroxyethyl)amino)phenyl)-1-(2-(pyridin-2-yl)ethyl)-1H-benzo[d]imidazol-5-yl)-3-((3,4-dichlorobenzyl)amino)propanamide]: in assay [1], the viability at 2.5 µM was 89%, the viability at 5 µM came to 100% and the viability at 10 µM came to 101%.
As for `NC(=O)CC(NCC1CCCCC1)c1ccc2c(c1)nc(-c1ccc(N3CCOCC3)cc1)n2Cc1ccc(Cl)c(C(F)(F)F)c1` (stereo not shown) [LLS98, 3-(1-(4-chloro-3-(trifluoromethyl)benzyl)-2-(4-morpholinophenyl)-1H-benzo[d]imidazol-5-yl)-3-((cyclohexylmethyl)amino)propanamide], in assay [1], the viability at 2.5 µM came out at 40%, the viability at 5 µM stood at 0% and the viability at 10 µM turned out to be 0%.
As to `NC(=O)CC(NCc1ccc(Cl)c(Cl)c1)c1ccc2c(c1)nc(-c1ccc(N(CCO)CCO)cc1)n2Cc1ccc(C(F)(F)F)cc1` (stereo not shown) [LLS92, 3-(2-(4-(bis(2-hydroxyethyl)amino)phenyl)-1-(4-(trifluoromethyl)benzyl)-1H-benzo[d]imidazol-5-yl)-3-((3,4-dichlorobenzyl)amino)propanamide], in assay [1], the viability at 2.5 µM came out at 74%, the viability at 5 µM came out at 15% and the viability at 10 µM was 1%.
The corresponding values for `NC(=O)CC(NCC1CCCCC1)c1ccc2c(c1)nc(-c1cccc(OCCN3CCOCC3)c1)n2Cc1ccc(OC(F)(F)F)cc1` (stereo not shown) [LLS91, 3-((cyclohexylmethyl)amino)-3-(2-(3-(2-morpholinoethoxy)phenyl)-1-(4-(trifluoromethoxy)benzyl)-1H-benzo[d]imidazol-5-yl)propanamide] are 33%, 7% and 0%.
Taken in the same sequence, the figures for `NC(=O)CC(NCC1CCCCC1)c1ccc2c(c1)nc(-c1ccncc1)n2Cc1ccc(OC(F)(F)F)cc1` (stereo not shown) [LLS88, 3-((cyclohexylmethyl)amino)-3-(2-(pyridin-4-yl)-1-(4-(trifluoromethoxy)benzyl)-1H-benzo[d]imidazol-5-yl)propanamide] were 75%, 4% and 0%.
Taken in the same sequence, the figures for `NC(=O)CC(NCC1CCCCC1)c1ccc2c(c1)nc(-c1ccc(N3CCOCC3)cc1)n2CCc1ccccn1` (stereo not shown) [LLS109, 3-((cyclohexylmethyl)amino)-3-(2-(4-morpholinophenyl)-1-(2-(pyridin-2-yl)ethyl)-1H-benzo[d]imidazol-5-yl)propanamide] were 98%, 88% and 88%.
Regarding `NC(=O)CC(NCc1ccc(Cl)c(Cl)c1)c1ccc2c(c1)nc(-c1ccc(N(CCO)CCO)cc1)n2Cc1ccc(Br)cc1` (stereo not shown) [LLS93, 3-(2-(4-(bis(2-hydroxyethyl)amino)phenyl)-1-(4-bromobenzyl)-1H-benzo[d]imidazol-5-yl)-3-((3,4-dichlorobenzyl)amino)propanamide], in assay [1], the viability at 2.5 µM is 22%, the viability at 5 µM came to 2% and the viability at 10 µM was determined as 0%.
`NC(=O)CC(NCc1ccc(Cl)c(Cl)c1)c1ccc2c(c1)nc(-c1cccc(OCCN3CCOCC3)c1)n2Cc1ccc(Cl)c(Cl)c1` (stereo not shown) [LLS87, 3-(1-(3,4-dichlorobenzyl)-2-(3-(2-morpholinoethoxy)phenyl)-1H-benzo[d]imidazol-5-yl)-3-((3,4-dichlorobenzyl)amino)propanamide]: in assay [1], the viability at 2.5 µM is 76%, the viability at 5 µM amounted to 56% and the viability at 10 µM amounted to 0%.
Taken in the same sequence, the figures for `CN(C)CCCOc1ccc(-c2nc3cc(C(CC(N)=O)NCC4CCCCC4)ccc3n2Cc2ccc(Br)cc2)cc1` (stereo not shown) [LLS95, 3-(1-(4-bromobenzyl)-2-(4-(3-(dimethylamino)propoxy)phenyl)-1H-benzo[d]imidazol-5-yl)-3-((cyclohexylmethyl)amino)propanamide] were 22%, 1% and 0%.
The corresponding values for `NC(=O)CC(NCc1ccc(Cl)c(Cl)c1)c1ccc2c(c1)nc(-c1ccc(N(CCO)CCO)cc1)n2Cc1ccc(Cl)c(C(F)(F)F)c1` (stereo not shown) [LLS97, 3-(2-(4-(bis(2-hydroxyethyl)amino)phenyl)-1-(4-chloro-3-(trifluoromethyl)benzyl)-1H-benzo[d]imidazol-5-yl)-3-((3,4-dichlorobenzyl)amino)propanamide] are 23%, 0% and 0%.
As for `NC(=O)CC(NCC1CCCCC1)c1ccc2c(c1)nc(-c1ccc(N3CCOCC3)cc1)n2Cc1ccc(C(F)(F)F)c(F)c1` (stereo not shown) [LLS96, 3-((cyclohexylmethyl)amino)-3-(1-(3-fluoro-4-(trifluoromethyl)benzyl)-2-(4-morpholinophenyl)-1H-benzo[d]imidazol-5-yl)propanamide], in assay [1], the viability at 2.5 µM was 45%, the viability at 5 µM is 0% and the viability at 10 µM was 0%.
Consider `CN1CCN(c2ccc(-c3nc4cc(C(CC(N)=O)NCC5CCCCC5)ccc4n3Cc3ccc(Cl)c(C(F)(F)F)c3)cc2)CC1` (stereo not shown) [LLS99, 3-(1-(4-chloro-3-(trifluoromethyl)benzyl)-2-(4-(4-methylpiperazin-1-yl)phenyl)-1H-benzo[d]imidazol-5-yl)-3-((cyclohexylmethyl)amino)propanamide], for which, in assay [1], the viability at 2.5 µM worked out at 1%, the viability at 5 µM was 0% and the viability at 10 µM came to 0%.
As to `NC(=O)CC(NCC1CCCCC1)c1ccc2c(c1)nc(-c1ccc(N3CCOCC3)cc1)n2Cc1ccc(Br)cc1` (stereo not shown) [LLS94, 3-(1-(4-bromobenzyl)-2-(4-morpholinophenyl)-1H-benzo[d]imidazol-5-yl)-3-((cyclohexylmethyl)amino)propanamide], in assay [1], the viability at 2.5 µM stood at 3%, the viability at 5 µM worked out at 0% and the viability at 10 µM is 0%.

By IC50 is commonly meant the concentration that gives 50% inhibition. Low values mean greater potency, high ones weaker potency. For orientation: viability means a read-out of living cells in per cent, often relative to untreated cells.
